Data: patent US20230286943A1, “IL-17A MODULATORS” (SANOFI, priority 2020, published 2023)
Marks after values point to notes of the source that are not given here.

Molecular target: human recombinant IL-17A (Homo sapiens (Human), UniProt Q16552)
Experiment: IL-17A AlphaLISA Assay (competition: block binding of IL-17A to its receptor IL-17RA)
Protocol: The ability of the compounds to block binding of IL-17A to its receptor, IL-17RA, was analysed in a competition assay using AlphaLISA technology (Perkin Elmer). The assay is a bead based AlphaLISA where the IL-17RA is captured on the acceptor bead via an Fc tag and IL-17A is captured on the streptavidin donor bead via a biotinylated anti-IL-17A antibody.
Assay buffer was prepared by adding 0.05% Tween-20 (v/v) and 0.1% BSA to Phosphate Buffered Saline (PBS). The assay was carried out in 384-well white low volume plates (Corning 4512). 10 μL of a 7.5 nM stock of human recombinant IL-17A (R&D Systems 7955-IL/CF) diluted in assay buffer was dispensed into the assay plate and compounds or DMSO vehicle control were added in a volume of 75 nL using a D300 dispenser (Hewlett Packard). The compounds were pre-incubated with the IL-17A for 24 h at room temperature (or for 30 min, where indicated by * in Table A below) prior to addition of 5 μL of a 5 nM stock of human recombinant IL-17RA/Fc chimera (R&D Systems 177-IR-100) diluted in assay buffer. The IL-17A was incubated with the receptor for a further 90 minutes at room temperature before addition of 5 μL of a mixture of anti-human Fc IgG acceptor beads (75 μg/mL, Perkin Elmer AL103C) and anti-IL-17A biotin conjugated antibody (5 nM, Enzo Life Sciences, ENZ-ABS278-0100) in assay buffer. After a further 30 min incubation at room temperature, 5 μL of streptavidin donor beads (75 μg/mL, Perkin Elmer 6760002S) were added and the plate was incubated for 3 h in the dark.
The luminescence signal was measured using an Enspire plate reader (Perkin Elmer) with excitation at 680 nm and emission at 615 nm. Data were analysed using GraphPad Prism and fitted to a 4-parameter logistic equation. The IC50 values were calculated using the DMSO vehicle as the negative control and a high concentration (6 μM) of a reference IL-17A inhibitor as the positive control.
Activity of the Example compounds is reported as a pIC50 value in Table A.

[1] = compounds pre-incubated with IL-17A for 30 min (indicated by *)

human recombinant IL-17A, sequence (Q16552 24-155): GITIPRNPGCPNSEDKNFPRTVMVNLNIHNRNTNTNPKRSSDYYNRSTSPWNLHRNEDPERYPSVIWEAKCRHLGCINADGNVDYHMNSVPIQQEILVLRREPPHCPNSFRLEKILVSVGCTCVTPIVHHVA

Row | SMILES | AlphaLISA pIC50 (compounds pre-incubated with IL-17A for 24 h at room temperature) | AlphaLISA pIC50 [1]
1 | Cc1c(-c2ccc(NC(=O)[C@@H](NC(=O)c3ccnn3C)C3CCC(F)(F)CC3)cc2)ccc(=O)n1C [Example 20, (S)-N-(1-(4,4-Difluorocyclohexyl)-2-((4-(1,2-dimethyl-6-oxo-1,6-dihydropyridin-3-yl)phenyl)amino)-2-oxoethyl)-1-methyl-1H-pyrazole-5-carboxamide] |  | 6.0*
2 | Cc1c(-c2ccc(NC(=O)[C@@H](NC(=O)c3ccnn3C)C3CCC(C)(C)CC3)cc2)ccc(=O)n1C [Example 21, (S)-N-(2-((4-(1,2-Dimethyl-6-oxo-1,6-dihydropyridin-3-yl)phenyl)amino)-1-(4,4-dimethylcyclohexyl)-2-oxoethyl)-1-methyl-1H-pyrazole-5-carboxamide] |  | 6.0*
3 | CCn1nccc1C(=O)N[C@H](C(=O)Nc1ccc(-c2c(C)c[n+]([O-])cc2C)cn1)[C@H]1CC[C@H](C)CC1 [Example 58, 6-((S)-2-(1-Ethyl-1H-pyrazole-5-carboxamido)-2-((1 r,4S)-4-methylcyclohexyl)acetamido)-3′,5′-dimethyl-[3,4′-bipyridine]1′-oxide] |  | 6.9*
4 | COc1c(-c2ccc(NC(=O)[C@@H](NC(=O)c3ccnn3C)[C@H]3CC[C@H](C)CC3)nc2)ccnc1C [Example 70, N-((S)-2-((3′-methoxy-2′-methyl-[3,4′-bipyridin]-6-yl)amino)-1-((1r,4S)-4-methylcyclohexyl)-2-oxoethyl)-1-methyl-1H-pyrazole-5-carboxamide] |  | 6.1*
5 | Cc1nsc(C)c1-c1ccc(NC(=O)[C@@H](NC(=O)c2cnnn2C)[C@H]2CC[C@H](C)CC2)nc1 [Example 116, N-((S)-2-((5-(3,5-dimethylisothiazol-4-yl)pyridin-2-yl)amino)-1-((1r,4S)-4-methylcyclohexyl)-2-oxoethyl)-1-methyl-1H-1,2,3-triazole-5-carboxamide] |  | 6.0*

More lines, now with the values ahead:

Row | AlphaLISA pIC50 (compounds pre-incubated with IL-17A for 24 h at room temperature) | AlphaLISA pIC50 [1] | SMILES
6 | 6.0 |  | Cc1c(-c2ccc(NC(=O)[C@@H](NC(=O)c3ccnn3C)[C@H]3CC[C@H](C)CC3)nc2)ccc(=O)n1C [Example 8, N-((S)-2-((1′,2′-Dimethyl-6′-oxo-1′,6′-dihydro-[3,3′-bipyridin]-6-yl)amino)-1-((1 r,4S)-4-methylcyclohexyl)-2-oxoethyl)-1-methyl-1H-pyrazole-5-carboxamide]
7 |  | 6.8* | Cc1nnn(C)c1-c1ccc(NC(=O)[C@@H](NC(=O)c2ccnn2C)[C@H]2CC[C@H](C)CC2)nc1 [Example 44, N-((S)-2-((5-(1,4-Dimethyl-1H-1,2,3-triazol-5-yl)pyridin-2-yl)amino)-1-((1r,4S)-4-methylcyclohexyl)-2-oxoethyl)-1-methyl-1H-pyrazole-5-carboxamide]
8 |  | 6.3* | Cc1cnn(C)c1-c1ncc(NC(=O)[C@@H](NC(=O)c2ccnn2C)[C@H]2CC[C@H](C)CC2)cc1F [Example 98, N-((S)-2-((6-(1,4-dimethyl-1H-pyrazol-5-yl)-5-fluoropyridin-3-yl)amino)-1-((1 r,4S)-4-methylcyclohexyl)-2-oxoethyl)-1-methyl-1H-pyrazole-5-carboxamide]
9 |  | 6.1* | Cc1cnn(C)c1-c1ccc(NC(=O)[C@@H](NC(=O)c2ccnn2C)C2CCCC2)nc1 [Example 102, (S)-N-(1-cyclopentyl-2-((5-(1,4-dimethyl-1H-pyrazol-5-yl)pyridin-2-yl)amino)-2-oxoethyl)-1-methyl-1H-pyrazole-5-carboxamide]
10 |  | 6.8* | CCn1nccc1C(=O)N[C@H](C(=O)Nc1cnc(-c2c(C)cnn2C)c(F)c1)[C@H]1CC[C@H](C)CC1 [Example 108, N-((S)-2-((6-(1,4-dimethyl-1H-pyrazol-5-yl)-5-fluoropyridin-3-yl)amino)-1-((1 r,4S)-4-methylcyclohexyl)-2-oxoethyl)-1-ethyl-1H-pyrazole-5-carboxamide]
